The assay has as its system BDF1 mice, P388 leukemia ip, median survival T/C. Kind of assay: NCI In Vivo Anticancer Drug Screen. Data for tumor model P388 Leukemia (intraperitoneal) in B6D2F1 (BDF1) mice. The note with it: endpoint: median survival time, higher = longer survival. In outline: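 Reported as T/C, where T is the survival measurement in dosed animals and C the same measurement in vehicle controls.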

The mark [1] stands for this setting: dose: 50.0 mg/kg/injection, schedule: Q01DX009 (ip), vehicle: saline with Tween-80.
[2] abbreviates: dose: 100.0 mg/kg/injection, schedule: Q01DX009 (ip), vehicle: saline with Tween-80.
Where [3] appears, read: dose: 200.0 mg/kg/injection, schedule: Q01DX009 (ip), vehicle: saline with Tween-80.
[4] abbreviates: dose: 100.0 mg/kg/injection, schedule: Q04DX003 (ip), vehicle: saline with Tween-80.
The mark [5] stands for this setting: dose: 12.5 mg/kg/injection, schedule: Q01DX009 (ip), vehicle: saline with Tween-80.
The mark [6] stands for this setting: dose: 12.5 mg/kg/injection, schedule: Q01DX009 (ip), vehicle: water.
Setting [7] is: dose: 25.0 mg/kg/injection, schedule: Q01DX009 (ip), vehicle: saline with Tween-80.
Setting [8] is: dose: 25.0 mg/kg/injection, schedule: Q01DX009 (ip), vehicle: saline.
The mark [9] stands for this setting: dose: 25.0 mg/kg/injection, schedule: Q04DX003 (ip), vehicle: saline with Tween-80.
The mark [10] stands for this setting: dose: 50.0 mg/kg/injection, schedule: Q04DX003 (ip), vehicle: saline with Tween-80.
Setting [11] is: dose: 50.0 mg/kg/injection, schedule: Q01DX009 (ip), vehicle: saline.
The mark [12] stands for this setting: dose: 100.0 mg/kg/injection, schedule: Q01DX009 (ip), vehicle: saline.
The mark [13] stands for this setting: dose: 12.5 mg/kg/injection, schedule: Q01DX009 (ip), vehicle: Klucel (hydroxypropylcellulose) (HPC).

Values joined by “and” are separate entries in the source; they are usually repeats but may differ in a detail not shown here. Identical values can stand only once. Inconclusive results and toxic doses are left out. Non-standard residues stand in square brackets, D forms with d. Residues, ends and D or L forms follow the SMILES beside them. ξ: configuration not given here. *: point of attachment. Boc = CC(C)(C)OC(=O)*; ξP = O=C(O)C1CCCN1

As for `CC(=O)n1nc(Cl)c2ccc([N+](=O)[O-])cc21`, the T/C reads like this: under setting [1], 97 % of control; under setting [2], 100 % of control; under setting [3], 100 % of control.

For the compound `CC1(C)CCC2(C)CC=C3OC(=O)CCC3(C)C2C1` (centres undefined), the T/C is 118 % of control under setting [2]; 100 % of control (dose: 100.0 mg/kg/injection, schedule: Q04DX003 (ip), vehicle: saline sonified); 100 % of control under setting [3]; 100 % of control (dose: 200.0 mg/kg/injection, schedule: Q04DX003 (ip), vehicle: saline sonified); 109 % of control (dose: 400.0 mg/kg/injection, schedule: Q01DX009 (ip), vehicle: saline with Tween-80); 95 % of control (dose: 400.0 mg/kg/injection, schedule: Q04DX003 (ip), vehicle: saline sonified).

Turning to `CCCCNC(C)(C)C(SSSC(c1cccs1)C(C)(C)NCCCC)c1cccs1` (centres undefined), the T/C (dose: 44.0 mg/kg/injection, schedule: Q04DX003 (ip), vehicle: saline with Tween-80) is 113 % of control; the T/C under setting [1] is 118 % of control; the T/C (dose: 66.0 mg/kg/injection, schedule: Q04DX003 (ip), vehicle: saline with Tween-80) was 100 % of control; the T/C under setting [2] was 122 % of control; the T/C under setting [4] is 118 % of control; the T/C (dose: 150.0 mg/kg/injection, schedule: Q04DX003 (ip), vehicle: saline with Tween-80) was 109 % of control. Further, the T/C is 118 % of control under setting [3]; 118 % of control (dose: 200.0 mg/kg/injection, schedule: Q04DX003 (ip), vehicle: saline with Tween-80); 122 % of control (dose: 400.0 mg/kg/injection, schedule: Q04DX003 (ip), vehicle: saline with Tween-80).

As to `CC(C)(Br)C(=O)c1ccc([N+](=O)[O-])o1`, the T/C runs as follows: (dose: 0.78 mg/kg/injection, schedule: Q01DX009 (ip), vehicle: water) 95 % of control; (dose: 1.56 mg/kg/injection, schedule: Q01DX009 (ip), vehicle: water) 89 % of control; (dose: 3.12 mg/kg/injection, schedule: Q01DX009 (ip), vehicle: saline) 116 % of control; (dose: 3.12 mg/kg/injection, schedule: Q01DX009 (ip), vehicle: water) 87 % of control; (dose: 6.25 mg/kg/injection, schedule: Q01DX009 (ip), vehicle: saline) 123 % of control; (dose: 6.25 mg/kg/injection, schedule: Q01DX009 (ip), vehicle: water) 105 % of control. The T/C is, setting by setting: under setting [5], 95 % of control; under setting [6], 104 % of control; under setting [7], 100 % of control; under setting [8], 116 % of control; under setting [9], 107 % of control; under setting [1], 95 % of control. Moreover, the T/C by setting is: under setting [10], 109 % of control; under setting [2], 87 % of control; under setting [4], 100 % of control.

Regarding `CC(=N\[O-])/C(C)=N/O.CC(=N\[O-])/C(C)=N/O.CCCc1ccncc1.[Cl-].[Cl-].[Rh+3]`, the T/C runs as follows: (dose: 12.5 mg/kg/injection, schedule: Q01DX009 (ip), vehicle: saline) 100 % of control; under setting [8], 102 % of control; under setting [11], 105 % of control; under setting [12], 102 % of control.

As to `Nc1nc(Cc2ccccc2)c(CCCNc2ccccc2)c(=O)[nH]1`, the T/C (dose: 6.25 mg/kg/injection, schedule: Q01DX009 (ip), vehicle: saline with Tween-80) is 107 % of control; the T/C under setting [7] was 98 % of control; the T/C under setting [1] was 96 % of control.

In the case of `O=C(NC(=O)c1c(F)cccc1F)Nc1ccc(Br)cc1`, the T/C by setting is: under setting [1], 101 % of control; under setting [2], 100 % of control; under setting [3], 96 % of control.

Take `CCCCN(S(=O)(=O)C(F)(F)F)S(=O)(=O)C(F)(F)F`: the T/C by setting is: under setting [12], 91 % of control; (dose: 200.0 mg/kg/injection, schedule: Q01DX009 (ip), vehicle: saline) 91 % of control; (dose: 400.0 mg/kg/injection, schedule: Q01DX009 (ip), vehicle: saline) 100 % of control.

On to `COc1cc2c(c(OC)c1OC)-c1ccc(SCc3ccccc3)c(=O)cc1[C@@H](NC(C)=O)CC2`, for which the T/C was 117 % of control (dose: 8.2 mg/kg/injection, schedule: Q01DX009 (ip), vehicle: Klucel (hydroxypropylcellulose) (HPC)) and 170 % of control under setting [13].

Take `O=[N+]([O-])c1cc(S(=O)(=O)OCC2CO2)ccc1Cl` (centres undefined): the T/C is 100 % of control (dose: 6.25 mg/kg/injection, schedule: Q01DX009 (ip), vehicle: Klucel (hydroxypropylcellulose) (HPC)); 95 % of control (dose: 12.0 mg/kg/injection, schedule: Q04DX003 (ip), vehicle: Klucel (hydroxypropylcellulose) (HPC)); 105 % of control under setting [13]; 120 % of control (dose: 25.0 mg/kg/injection, schedule: Q01DX009 (ip), vehicle: Klucel (hydroxypropylcellulose) (HPC)); 108 % of control (dose: 100.0 mg/kg/injection, schedule: Q04DX003 (ip), vehicle: Klucel (hydroxypropylcellulose) (HPC)).

On to `C1=CC(=P(c2ccccc2)(c2ccccc2)c2ccccc2)C=C1`, for which the T/C is 100 % of control (dose: 50.0 mg/kg/injection, schedule: Q01DX010 (ip), vehicle: saline); 100 % of control (dose: 100.0 mg/kg/injection, schedule: Q01DX010 (ip), vehicle: saline); 100 % of control (dose: 200.0 mg/kg/injection, schedule: Q01DX010 (ip), vehicle: saline); 100 % of control (dose: 400.0 mg/kg/injection, schedule: Q01DX010 (ip), vehicle: saline).

Regarding `CCc1cc(CC)n2cnnc2n1`, the T/C by setting is: under setting [11], 89 % of control; under setting [12], 89 % of control.

In the case of `CC(Oc1ccccc1-c1ccccc1)C(=O)N(C)C` (centres undefined), the T/C under setting [5] is 100 % of control; the T/C under setting [1] is 121 % of control and 124 % of control; the T/C under setting [2] was 97 % of control and 105 % of control; the T/C under setting [3] is 112 % of control.

Take `OC(Cc1ccccc1)(c1ccccc1)c1cccc2ccccc12` (centres undefined): the T/C (dose: 100.0 mg/kg/injection, schedule: Q01DX009 (ip), vehicle: Klucel (hydroxypropylcellulose) (HPC)) is 100 % of control; the T/C (dose: 200.0 mg/kg/injection, schedule: Q01DX009 (ip), vehicle: Klucel (hydroxypropylcellulose) (HPC)) was 100 % of control; the T/C (dose: 400.0 mg/kg/injection, schedule: Q01DX009 (ip), vehicle: Klucel (hydroxypropylcellulose) (HPC)) is 104 % of control.

Take `CCCCCCCCCCCCCCCCCC(=O)NN`: the T/C reads like this: (dose: 12.5 mg/kg/injection, schedule: Q04DX003 (ip), vehicle: saline with Tween-80) 105 % of control; under setting [9], 98 % of control; under setting [10], 98 % of control.

As for `O=N[O-].O=N[O-].[Co].[NH-]CC[N-]CCO.[NH-]CC[N-]CCO`, the T/C is, setting by setting: under setting [6], 102 % of control and 115 % of control; (dose: 40.0 mg/kg/injection, schedule: Q01DX009 (ip), vehicle: water) 118 % of control; (dose: 50.0 mg/kg/injection, schedule: Q01DX009 (ip), vehicle: water) 100 % of control and 111 % of control; (dose: 100.0 mg/kg/injection, schedule: Q01DX009 (ip), vehicle: water) 101 % of control.

On to `Cc1cc2cc3c(=O)[nH]c(=O)nc-3n(CC(O)C(O)C(O)COP(=O)(O)O)c2cc1C` (centres undefined), for which the T/C (dose: 66.0 mg/kg/injection, schedule: Q01DX009 (ip), vehicle: saline) was 100 % of control; the T/C under setting [12] is 95 % of control and 100 % of control; the T/C (dose: 100.0 mg/kg/injection, schedule: Q04DX003 (ip), vehicle: saline) is 100 % of control; the T/C (dose: 200.0 mg/kg/injection, schedule: Q04DX003 (ip), vehicle: saline) was 113 % of control; the T/C (dose: 400.0 mg/kg/injection, schedule: Q04DX003 (ip), vehicle: saline) was 100 % of control.

For `CC(C)(C)OC(=O)NCC(=O)N1CCCC1C(=O)O` (stereo not drawn) (Boc-Gly-[ξP]-OH), the T/C is, setting by setting: (dose: 50.0 mg/kg/injection, schedule: Q01DX005 (ip), vehicle: saline) 92 % of control; (dose: 100.0 mg/kg/injection, schedule: Q01DX005 (ip), vehicle: saline) 90 % of control; (dose: 200.0 mg/kg/injection, schedule: Q01DX005 (ip), vehicle: saline) 100 % of control.

With `CC(=O)OCC1OC(N=[N+]=[N-])C(OC(C)=O)C(OC(C)=O)C1OC(C)=O` (centres undefined), the T/C is 93 % of control under setting [1], 108 % of control under setting [2] and 99 % of control under setting [3].

(Values after PubChem BioAssay AID328 (DTP/NCI, 2004).)
